Reference: ChEMBL document CHEMBL1156285, “Stereochemistry-activity relationship of orally active tetralin S1P agonist prodrugs” (Bioorg Med Chem Lett, 2010)
Active and inactive are the calls of the source. The calls are words filed in the database; no cut-off is given here.

How the values were obtained:
Mus musculus [1] = organism: Mus musculus; experiment: Immunosuppressive activity in mouse assessed as induction of lymphopenia; assay type: functional
[2] = biological target: T1, Sphingosine kinase 2 (Mus musculus) (UniProt Q9JIA7); experiment: Induction of mouse SphK2 phosphorylation
T1 sequence (whole entry): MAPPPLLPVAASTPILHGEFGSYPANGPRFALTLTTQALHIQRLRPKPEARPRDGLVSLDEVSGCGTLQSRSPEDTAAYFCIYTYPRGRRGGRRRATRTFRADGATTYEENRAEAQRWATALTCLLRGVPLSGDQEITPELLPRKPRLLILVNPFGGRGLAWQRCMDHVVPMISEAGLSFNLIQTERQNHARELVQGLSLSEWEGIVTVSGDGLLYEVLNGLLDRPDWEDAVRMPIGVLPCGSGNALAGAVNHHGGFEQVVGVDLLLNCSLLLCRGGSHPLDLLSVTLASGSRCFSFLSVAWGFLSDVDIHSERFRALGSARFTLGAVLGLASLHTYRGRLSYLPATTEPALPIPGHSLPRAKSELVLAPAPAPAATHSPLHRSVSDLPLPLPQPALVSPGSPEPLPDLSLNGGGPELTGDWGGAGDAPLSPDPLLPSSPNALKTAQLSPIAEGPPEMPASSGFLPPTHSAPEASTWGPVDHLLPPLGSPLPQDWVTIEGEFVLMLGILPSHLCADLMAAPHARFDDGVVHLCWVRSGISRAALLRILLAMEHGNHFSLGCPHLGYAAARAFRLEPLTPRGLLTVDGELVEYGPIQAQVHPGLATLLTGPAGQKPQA

[3] = biological target: T2, Sphingosine kinase 2 (Homo sapiens) (UniProt Q9NRA0); experiment: Induction of human SphK2 phosphorylation; design: concentration or dose not given beside the values
T2 sequence (whole entry): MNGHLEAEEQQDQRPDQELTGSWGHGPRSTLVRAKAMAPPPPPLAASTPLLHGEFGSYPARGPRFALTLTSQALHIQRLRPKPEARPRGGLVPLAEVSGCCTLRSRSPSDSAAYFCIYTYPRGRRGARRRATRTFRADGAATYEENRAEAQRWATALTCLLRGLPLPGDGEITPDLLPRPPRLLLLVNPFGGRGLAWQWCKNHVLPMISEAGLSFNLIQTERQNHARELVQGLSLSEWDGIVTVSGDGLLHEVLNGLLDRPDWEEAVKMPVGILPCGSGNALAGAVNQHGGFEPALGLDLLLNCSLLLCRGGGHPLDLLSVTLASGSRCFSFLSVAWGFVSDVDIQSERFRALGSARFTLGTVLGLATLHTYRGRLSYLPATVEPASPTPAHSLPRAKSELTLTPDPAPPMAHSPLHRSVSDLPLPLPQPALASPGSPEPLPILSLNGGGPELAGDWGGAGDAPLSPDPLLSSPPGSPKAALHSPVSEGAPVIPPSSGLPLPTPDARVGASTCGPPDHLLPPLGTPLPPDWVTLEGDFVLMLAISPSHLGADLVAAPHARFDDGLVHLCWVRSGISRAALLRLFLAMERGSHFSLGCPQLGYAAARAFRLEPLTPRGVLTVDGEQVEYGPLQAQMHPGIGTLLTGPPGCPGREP

[4] = biological target: T3, Sphingosine 1-phosphate receptor 1 (Homo sapiens, UniProt P21453); experiment: Agonist activity at human S1P1 receptor assessed as effect on calcium mobilization by Gi dependent whole cell assay; assay type: functional
T3 sequence (P21453 whole entry): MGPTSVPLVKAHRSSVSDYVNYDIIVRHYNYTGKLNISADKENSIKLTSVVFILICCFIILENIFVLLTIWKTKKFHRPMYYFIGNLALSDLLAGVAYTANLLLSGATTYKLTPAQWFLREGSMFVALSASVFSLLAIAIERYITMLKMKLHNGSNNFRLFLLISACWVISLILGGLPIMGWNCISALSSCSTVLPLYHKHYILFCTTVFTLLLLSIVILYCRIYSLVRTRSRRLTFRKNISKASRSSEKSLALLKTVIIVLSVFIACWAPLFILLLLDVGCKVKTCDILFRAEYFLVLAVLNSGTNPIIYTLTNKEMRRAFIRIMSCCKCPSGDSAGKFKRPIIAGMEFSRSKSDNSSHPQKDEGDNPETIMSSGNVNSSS

[5] = biological target: T4, Sphingosine 1-phosphate receptor 3 (Homo sapiens, UniProt Q99500); experiment: Agonist activity at human S1P3 receptor assessed as effect on calcium mobilization by Gi dependent whole cell assay; assay type: functional
T4 sequence (Q99500 whole entry): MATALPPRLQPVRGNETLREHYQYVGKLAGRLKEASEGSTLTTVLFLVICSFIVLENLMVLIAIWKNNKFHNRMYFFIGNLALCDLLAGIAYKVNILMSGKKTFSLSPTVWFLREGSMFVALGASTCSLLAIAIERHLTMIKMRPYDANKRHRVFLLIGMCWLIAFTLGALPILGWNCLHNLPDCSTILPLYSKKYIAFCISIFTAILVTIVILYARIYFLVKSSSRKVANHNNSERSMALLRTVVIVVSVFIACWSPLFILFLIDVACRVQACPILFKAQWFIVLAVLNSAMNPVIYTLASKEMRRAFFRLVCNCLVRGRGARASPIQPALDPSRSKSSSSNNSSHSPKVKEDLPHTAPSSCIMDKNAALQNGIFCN

[6] = biological target: T4, Sphingosine 1-phosphate receptor 3; experiment: Agonist activity at human S1P3 receptor assessed as effect on calcium mobilization by Gq dependent whole cell assay; assay type: functional
[7] = biological target: T3, Sphingosine 1-phosphate receptor 1; experiment: Agonist activity at human S1P1 receptor assessed as effect on calcium mobilization by Gq dependent whole cell assay; assay type: functional
[8] = biological target: Sphingosine 1-phosphate receptor 2 (Homo sapiens, UniProt O95136); experiment: Agonist activity at human S1P2 receptor assessed as effect on calcium mobilization by Gq dependent whole cell assay; assay type: functional
Sequence of Sphingosine 1-phosphate receptor 2 (O95136 whole entry): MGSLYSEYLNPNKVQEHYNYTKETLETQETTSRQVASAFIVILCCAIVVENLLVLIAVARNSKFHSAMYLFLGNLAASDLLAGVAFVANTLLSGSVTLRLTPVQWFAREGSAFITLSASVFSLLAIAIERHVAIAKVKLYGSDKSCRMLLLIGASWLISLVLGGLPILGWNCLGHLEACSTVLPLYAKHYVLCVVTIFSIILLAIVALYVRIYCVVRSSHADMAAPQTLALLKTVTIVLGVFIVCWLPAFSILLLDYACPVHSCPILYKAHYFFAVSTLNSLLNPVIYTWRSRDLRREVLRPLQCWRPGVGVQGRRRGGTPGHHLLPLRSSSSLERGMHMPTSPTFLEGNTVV

[9] = biological target: T5, Sphingosine 1-phosphate receptor 4 (Homo sapiens, UniProt O95977); experiment: Agonist activity at human S1P4 receptor assessed as effect on calcium mobilization by Gq dependent whole cell assay; assay type: functional
T5 sequence (O95977 whole entry): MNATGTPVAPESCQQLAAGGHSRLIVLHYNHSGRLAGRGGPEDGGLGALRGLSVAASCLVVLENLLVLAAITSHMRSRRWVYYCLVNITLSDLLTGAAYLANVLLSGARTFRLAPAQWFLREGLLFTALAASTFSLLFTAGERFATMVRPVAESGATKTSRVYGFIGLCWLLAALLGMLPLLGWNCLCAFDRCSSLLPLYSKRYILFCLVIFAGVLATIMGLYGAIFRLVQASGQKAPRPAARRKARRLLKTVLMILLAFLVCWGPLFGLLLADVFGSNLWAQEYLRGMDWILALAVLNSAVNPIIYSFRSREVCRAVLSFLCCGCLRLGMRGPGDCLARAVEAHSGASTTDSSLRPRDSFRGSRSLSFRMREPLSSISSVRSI

[10] = biological target: Sphingosine 1-phosphate receptor 5 (Homo sapiens, UniProt Q9H228); experiment: Agonist activity at human S1P5 receptor assessed as effect on calcium mobilization by Gq dependent whole cell assay; assay type: functional
Sequence of Sphingosine 1-phosphate receptor 5 (Q9H228 whole entry): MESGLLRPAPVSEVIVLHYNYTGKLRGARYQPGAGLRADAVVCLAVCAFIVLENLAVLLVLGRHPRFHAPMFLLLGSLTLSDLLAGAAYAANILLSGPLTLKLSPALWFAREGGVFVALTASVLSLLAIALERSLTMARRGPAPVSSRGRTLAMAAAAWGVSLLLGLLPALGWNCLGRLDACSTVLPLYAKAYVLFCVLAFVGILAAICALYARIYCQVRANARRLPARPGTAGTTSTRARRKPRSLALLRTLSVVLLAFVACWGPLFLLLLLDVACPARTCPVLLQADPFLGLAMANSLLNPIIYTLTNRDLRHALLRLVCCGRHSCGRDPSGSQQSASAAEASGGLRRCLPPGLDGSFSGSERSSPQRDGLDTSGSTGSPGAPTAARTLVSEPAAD

Mus musculus [11] = experiment: Vd in mouse at 1 mg/kg after 1 week; settings: in vivo, 168 h
Mus musculus [12] = experiment: Immunosuppressive activity in mouse assessed as induction of lymphopenia at 1 mg/kg after 1 week; assay type: functional, organism-based; design: dose 1 mg/kg
Mus musculus [13] = experiment: Oral bioavailability in mouse at 1 mg/kg after 1 week; assay type: ADME, organism-based; settings: in vivo, 168 h
[14] = Clearance in mouse at 1 mg/kg after 1 week; assay type: ADME, organism-based; design: dose 1 mg/kg; settings: in vivo
Mus musculus [15] = organism: Mus musculus; experiment: Immunosuppressive activity in mouse assessed as induction of […]; assay type: functional
Mus musculus [16] = experiment: Half life in mouse at 1 mg/kg after 1 week; assay type: ADME, organism-based; design: dose 1 mg/kg; settings: in vivo, 168 h
Mus musculus [17] = experiment: Oral bioavailability in mouse at 2 mg/kg after 72 hrs; assay type: ADME, organism-based; settings: in vivo
Mus musculus [18] = experiment: Immunosuppressive activity in mouse assessed as induction of lymphopenia at 2 mg/kg after 72 hrs; assay type: functional, organism-based; design: dose 2 mg/kg
Mus musculus [19] = experiment: Half life in mouse at 2 mg/kg after 72 hrs; assay type: ADME, organism-based; design: dose 2 mg/kg; settings: in vivo

## CCCCCCCCc1ccc(CCC(N)(CO)CO)cc1 [FINGOLIMOD]
Mus musculus [1]
  ED50: 0.03 mg/kg
[2]
  Activity: 87%
[3]
  Activity: 76%

## CCCCCCCCc1ccc2c(c1)CC[C@H]([C@](C)(N)CO)C2
Mus musculus [1]
  ED50: > 5 mg/kg
[3]
  Activity: 0%

## CCCCCCCCc1ccc2c(c1)CC[C@H](C(N)(CO)CO)C2
Mus musculus [1]
  ED50: 3.8 mg/kg
[3]
  Activity: 3%

## CCCCCCCCc1ccc2c(c1)CC[C@@H]([C@](C)(N)CO)C2
[3]
  Activity: 0%

## CCCCCCCCc1ccc2c(c1)CC[C@H]([C@](C)(N)COP(=O)(O)O)C2
[4]
  EC50: 13.6 nM
[5]
  EC50: > 5000 nM
[6]
  EC50: 922 nM
[7]
  EC50: > 5000 nM

## CCCCCCCCc1ccc2c(c1)CC[C@@H]([C@@](C)(N)COP(=O)(O)O)C2
[4]
  EC50: 0.088 nM
[5]
  EC50: 0.15 nM
[6]
  EC50: 38.2 nM
[7]
  EC50: 5.62 nM

## CCCCCCCCCCCCC/C=C/[C@@H](O)[C@@H](N)COP(=O)(O)O
[4]
  EC50: 0.027 nM
[5]
  EC50: 0.449 nM

## CCCCCCCCc1ccc2c(c1)CC[C@@H]([C@@](C)(N)CO)C2
Mus musculus [1]
  ED50: 0.8 mg/kg
[3]
  Activity: 38%

## CCCCCCCCc1ccc2c(c1)CC[C@@H](C(N)(CO)COP(=O)(O)O)C2 (stereo in doubt)
[8]
  EC50: > 5000 nM
[9]
  EC50: 41.4 nM
[4]
  EC50: 0.344 nM
[5]
  EC50: > 5000 nM
[6]
  EC50: 25.7 nM
[7]
  EC50: 133 nM
[10]
  EC50: 33 nM

## CCCCCCCCc1ccc(CC[C@@](N)(CO)COP(=O)(O)O)cc1
[9]
  EC50: 137 nM

## CCCCCCCCc1ccc2c(c1)CC[C@@H](C(N)(CO)COP(=O)(O)O)C2 (single isomer, unassigned; isomer 1)
[8]
  EC50: > 5000 nM
[9]
  EC50: 5.39 nM
[4]
  EC50: 0.077 nM
[5]
  EC50: 0.215 nM
[6]
  EC50: 18.7 nM
[7]
  EC50: 1.95 nM
[10]
  EC50: 0.33 nM

## CCCCCCCCc1ccc(CC[C@](N)(CO)COP(=O)(O)O)cc1 [FTY720-P]
[9]
  EC50: 22.2 nM

## CCCCCCCCc1ccc2c(c1)CC[C@@H]([C@](C)(N)COP(=O)(O)O)C2
[4]
  EC50: 19.7 nM
[5]
  EC50: > 5000 nM

## CCCCCCCCc1ccc2c(c1)CC[C@H]([C@@](C)(N)CO)C2
Mus musculus [1]
  ED50: 0.1 mg/kg
[2]
  Activity: 90%
[3]
  Activity: 77%
Mus musculus [11]
  Vd: 16 L/kg
Mus musculus [12]
  Activity: Active
Mus musculus [13]
  F: 55%
[14]
  clearance: 5.5 mL/min/kg
Mus musculus [15]
  Activity: 63%
Mus musculus [16]
  t1/2: 36 h

## CCCCCCCCc1ccc2c(c1)CC[C@@H](C(N)(CO)CO)C2
Mus musculus [1]
  ED50: 0.2 mg/kg
[2]
  Activity: 4%
[3]
  Activity: 9%
Mus musculus [17]
  F: 55%
Mus musculus [18]
  Activity: Active
Mus musculus [19]
  t1/2: 16 h
Mus musculus [15]
  Activity: 3%

## CCCCCCCCc1ccc2c(c1)CC[C@H]([C@@](C)(N)COP(=O)(O)O)C2
[8]
  EC50: > 5000 nM
[9]
  EC50: 16 nM
[4]
  EC50: 0.018 nM
[5]
  EC50: 0.286 nM
[6]
  EC50: 97.4 nM
[7]
  EC50: 1.79 nM
[10]
  EC50: 1.49 nM
